Like-named read-outs stand apart in the source and are kept apart here.
Experiments:
[1] = tested on: fetal islet β cells; experiment: SNP-induced apoptosis in cultured fetal islets (TUNEL, confocal microscopy); assay type: cell-based, Wistar rats; details: SNP 100 μmol/l
Method: Animals and Diets. Adult virgin female Wistar rats were caged overnight with males and copulation was verified the next morning. Animals were maintained at 25° C. with a 10 h-14 h dark-light cycle. Pregnant rats were divided into two groups and fed one of the following isocaloric diets: either a control diet (C) containing 20% protein or a low protein diet (LP) containing 8% protein. The composition of the diet was as described previously by Snoeck et al. 1990 (Biol. Neonate 57, 107-118). The diets were purchased from Hope Farms (Woerden, Holland). Animals in both the groups had free access to water at all times. At 21.5 days of gestation, females were sacrificed by decapitation and fetuses removed.
Islet culture and treatment. Fetal islets were isolated as described by Mourmeaux et al. 1985 (Molecular and Cellular Endocrinology 39:237-246). Islets were cultured in 35 mm Petri-dishes (Falcon plastics, Los Angeles, Calif.) in RPMI 1640 medium (Gibco, Grand Island, N.Y., USA) with 10% Fetal Bovine Serum and antibiotics (penicillin 200 U/ml, streptomycin 0.2 mg/ml). Petri dishes were incubated at 37° C. with 5% CO2 in air. The culture medium was changed daily after the second day. On the 5th day of culture, islets were rinsed twice with serum free DME/F12 medium (1:1, v/v, Gibco, Paisley, Scotland) and subsequently incubated for 42 hours in this medium. […]
TUNEL method for evaluating apoptosis. Apoptosis was evaluated by the TUNEL method described herein, and visualized with confocal microscopy. Cultured islets were fixed in methanol and stored at −20° C. until analysis. The tissue was then washed with phosphate buffered saline (PBS) for 3 min, and a terminal deoxynucleotidyl transferase (TdT) reaction buffer (50 μl) was added. The 50 μl of TdT solution was prepared using 10 μl of 5× concentrated buffer solution (1 mol/l potassium cacodylate; 125 mmol/l Tris-HCl, pH 6.6; 1.26 mg bovine serum albumin). Cobalt chloride (5 μl of 25 mmol/l), 0.5 μl (12.5 units) of TdT (both from Boehringer Mannheim, Germany), and 0.25 nmoles of BODIPY-FL-X-14-dUTP (Molecular Probes, Eugene, Oreg. USA) were added, along with distilled water, up to 50 μl. Islets were incubated in Petri dishes with the TdT reaction buffer for 60 min at 37° C., then rinsed twice with 15 mmol/l EDTA (pH 8.0) in PBS and once with 0.1% Triton X-100 in PBS. Then, 2 ml of PBS containing 2.5 μg/ml of propidium iodide (Molecular Probes, Eugene, Oreg. USA) was added to the dishes for 5 min. Finally, islet cells were washed with 15 mmol/l EDTA (pH 8.0). Islet cells were then double-labelled for apoptotic nuclei, showing the BODIPY-FL-dUTP label in […] and total nuclei with propidium iodide in red.
Confocal microscopy. Staining probes were visualised through a confocal laser scanning microscopy system (MRC-1024 UV; BIO-RAD, UK) equipped with Argon ion and Krypton/Argon ion lasers. BODIPY-FL was excited at 503 nm, ethidium bromide at 510 nm, propidium iodide at 536 nm and Hoechst 33342 at 346 nm. The emissions were recorded respectively at 522/32 nm, 605/32 nm and 455/30 nm. Four to six optical sections were collected at every 15 μm through the islet. The number of BODIPY-FL-positive or ethidium bromide-positive nuclei were reported and expressed as a percentage of the total number of nuclei.
Animals, diets, and fetal islet isolation procedures were conducted as described in Example 1.

[2] = SIN-1
Method: Chemiluminescence measurements. Luminol (5-amino-2,3-dihydro-1-4-phtalazinedione) at 400 μmol/l (Sigma Chemical Co.), taurine (0.3 or 3 mmol/l), methionine (0.1 or 1 mmol/l) and β-alanine (0.3 or 3 mmol/l) stock solutions were prepared in PBS. Sydnonimine (SIN-1), also known as 3-morpholinosydnonimine, a source of peroxynitrite, was purchased from Sigma Chemical Co. SIN-1 was prepared as 100 μmol in 1 mol/l NaOH. A reaction was initiated by simultaneous injection of luminol and SIN-1 into wells containing PBS either alone or with supplemental amino acid levels as noted above. Chemiluminescence emitted by luminol in the presence of peroxynitrite was measured every 30 seconds over 20 minutes in a chemifluorophotometer (MicroLumat LB96P, EG&G BERTHOLD), and was quantified as light intensity (10^8 RLU).
Nitric oxide is a reactive free radical which leads to peroxynitrite formation, another reactive free radical, by interaction with superoxide (NO+OO^−→ONOO^−). […] Luminol-derived chemiluminescence induced by peroxynitrite produced by the decomposition of sydnonimine (SIN-1) was evaluated to investigate the possibility that taurine quenched the peroxynitrite formed from NO.

[3] = tested on: fetal islet cells; experiment: IL1β-induced apoptosis in cultured fetal islets (TUNEL); assay type: cell-based, Wistar rats; details: 50 U/ml IL 1β for 24 hours; C and LP groups
Method: The effect of in vitro taurine on the effect of IL1β-induced apoptosis was assessed. Fetal islets were isolated as described above in Example 1. On the 5th day of culture, islets were rinsed twice with serum free DME/F12 medium (1:1, v/v, Gibco, Paisley, Scotland) and were incubated in this medium supplemented with taurine at 0.3 or 3 mmol/l for 48 hours. For the final 24 hours of this incubation, IL1β (Endogen, Woburn, Mass.) was added to the incubation medium at a level of 50 U/ml. Apoptosis was quantified by confocal microscopy using TUNEL method, as outlined in Example 1.

With `CC(=O)N(O)CCCCCNC(=O)CCC(=O)N(O)CCCCCNC(=O)CCC(=O)N(O)CCCCCN` [DFO, desferioxamine, reference compound] the “reduction of the cell death induced by SNP” value ([1]; LP and C islets, data not shown) was “about 30%”.

For `CSCC[C@H](N)C(=O)O` [methionine, L-Methionine], the apoptosis rate ([1]; 0.1 mmol/l methionine, regardless of diet) was “significantly decreased”, the apoptosis rate ([1]; 1.0 mmol/l methionine vs physiological concentration) was “did not provide additional protection” and the “luminol chemiluminescence (peroxynitrite quenching)” value ([2]; methionine 0.1 or 1 mmol/l) was “No change”.

With `NCCC(=O)O` [β-alanine, 3-aminopropanoic acid, reference compound] the “rate of apoptosis / protection against damage induced by NO” value ([1]; β-alanine 0.3 or 3 mmol/l) was “no protective effect” and the “luminol chemiluminescence (peroxynitrite quenching)” value ([2]; β-alanine 0.3 or 3 mmol/l) was “no change”.

In the case of “IL 1β: macrophage-derived proinflammatory cytokine used to induce islet cell apoptosis”, the “apoptosis level of fetal islets” value [3] is reported as “increased the apoptosis level”.
